Literature values as cited in publication PMC9316000, “Preclinical Drug Pharmacokinetic, Tissue Distribution and Excretion Profiles of the Novel Limonin Derivate HY-071085 as an Anti-Inflammatory and Analgesic Candidate in Rats and Beagle Dogs” (Pharmaceuticals, 2022).
Read-outs that look alike come from different tables or passages of the source.

What was measured:
[1] = parameters: method as in PMID 16435568; settings: cited from earlier work
[2] = parameters: method as in earlier work; settings: Temp 25℃, pH 7.0; cited from earlier work
[3] = parameters: method as in earlier work; settings: Temp 25℃; cited from earlier work
[4] = parameters: method as in earlier work; settings: Temp 25℃; cited from earlier work; remark: listed apart in the source

In the case of `CC1(C)O[C@H]2CC(=O)OC[C@]23[C@H]2CC[C@@]4(C)[C@H](c5ccoc5)OC(=O)[C@H]5O[C@]54[C@]2(C)C(=O)C[C@@H]13` [Limonin], the “exposure of female rats relative to male rats” value ([1]; intravenous administration) is given as “three-fold higher”, the “exposure of female rats relative to male rats” value ([1]; oral administration) is given as 50 fold and the LogD [2] is given as 0.47. The Intrinsic solubility [3] was 220 µg/mL and the logP [4] was 0.474.
